# How the values were obtained:
# [1] = tested on: Cathepsin K mRNA; assay: Bone phenotype mRNA expression in AIA rat knees; format: in vivo; settings: day 21
# [2] = tested on: ligament ruptured mice; assay: Knee swelling in non-invasive ligament rupture mouse model; format: in vivo; settings: 20 mM intra-articular
# Method: We have established a non-invasive mouse model of post-traumatic knee joint degeneration due to ligament rupture.
# Using custom built cups to hold the knee in flexion, loads (12N, 4 Hz, sine wave; ElectroForce® 3200, BOSE, USA) were applied to the right knees of 12-week-old C57Bl6 mice (n=10). […] Left knees served as unloaded controls. Immediately following ligament rupture, mice were given an intra-articular injection of 20 mM NBQX in to the right knee, whilst the control mice received an intra-articular injection of sterile H2O (vehicle control). A single dose of Temgesic was also given sub-cutaneously to relieve pain for up to 12 hours following loading.
# Lameness scores were carried out every day for the first week and then every few days the following weeks to assess the welfare of the animals and the potential need for pain relief. Knee swelling was measured using digital callipers on days 0, 1, 2, 3, 7, 16 and 21. All mice were euthanized on day 21 and the knee joints fixed in formalin for histology.
# [3] = tested on: MNX rats; assay: Knee swelling in meniscal transection (MNX) rats; format: in vivo, rat
# Method: (§1) We have established the meniscal transection (MNX) rat model of osteoarthritis. Surgery resection was performed wherein cutting through and removing part of the medial collateral ligament and then transecting the medial meniscus was performed under Home Office License. Surgery was performed under anaesthesia. Animals were then allowed to recover from surgery.
# (§2) Using the MNX model, we tested the effects of NBQX injected directly into the knee joint. There were 5 groups of male Sprague-Dawley rats, 3 animals per group as follows: • MNX+sterile H2O (vehicle control) • MNX+2.5 mM NBQX • MNX+12.5 mM NBQX • MNX+25 mM NBQX • Naïve
# (§3) NBQX treated rats received two intra-articular injections, the first immediately after MNX surgery and the second 7 days later. A single dose of Temgesic was also given sub-cutaneously to relieve pain following surgery. […] Vehicle control rats received injections of sterile H2O delivered in the same way at the same times. Over 21 days, weight, knee swelling (digital calliper) and incapacitance (Linton incapacitance meter) were measured on days 0, 1, 2, 3, 7, 8, 10, 14 and 21. The Linton incapacitance meter measures the weight exerted on each back leg whilst the rat is stationary in a clear Perspex box. The difference in weight bearing can then be calculated between the left and right leg. All rats were euthanized on day 21 and the knee joints fixed in formalin for histology.
# [4] = Body weight in MNX rats; format: in vivo, rat; settings: all rats; over 21 days
# Method: as §3
# [5] = tested on: IL-6 mRNA; assay: IL-6 mRNA expression in AIA rat joint tissues (QRT-PCR); format: in vivo; settings: day 21
# [6] = tested on: AIA rats; assay: Knee swelling in AIA rats; format: in vivo, rat
# Method: Diameters of the inflamed (right) and non-inflamed (left) knees of all the rats were measured using a Mitutoyo® digital calliper (RS Components Ltd, Northants, UK) to quantify swelling. […] Three readings were taken for each knee and the difference between the means of the inflamed and non-inflamed knee gave a value in millimeters of knee swelling.
# [7] = tested on: AMPA receptor; settings: cited from earlier work
# [8] = tested on: human RA FLS; settings: cited from earlier work
# [9] = tested on: AIA rats; assay: Histological disease assessment in AIA rats (synovial inflammation, joint degradation); format: in vivo, rat; settings: day 21
# Method: On day 21, 9 AIA, 9 NBQX and 3 control rats were culled and their knees dissected intact and fixed in 10% neutral buffered formalin solution (Sigma) for 2 days. Knees were decalcified in 10% EDTA (Fisher Scientific, Loughborough, UK) at 4° C., embedded in paraffin wax, sectioned (6 μm) in the coronal plane and stained with haematoxylin and eosin for synovial inflammation or toluidine blue/safranin-O for cartilage and bone scoring or retained for immunohistochemical analysis. Synovial inflammation and joint degradation were scored by two independent observers blinded to treatment group. An established scoring system was used to score synovial inflammation (3). Briefly, 3 parameters were scored: synovial hyperplasia (pannus formation) (0-3), synovial infiltrate (0-5) and synovial exudate (0-3), to give a maximum score of 11 per joint. Joint degradation was scored using a modified Mankin score (Table 1) consisting of: cartilage surface integrity (0-6), chondrocyte appearance (0-2), proteoglycan loss (0-4), tidemark integrity (0-2) and bone changes (0-3) to give a maximum score of 17 per joint quadrant (medial and lateral femoral condyles (MFC and LFC respectively) and medial and lateral tibial plateaux (MTP and LTP respectively)) totaling to a maximum of 68 per knee. In each knee, two representative sections ˜500 μm apart were scored for joint degradation.
# [10] = tested on: MNX rats; assay: Incapacitance testing in MNX rats; format: in vivo, rat; settings: day 8
# Method: as §1, §2, §3
# [11] = tested on: Kainate receptor; settings: cited from earlier work
# [12] = tested on: AIA rats; assay: Footprint analysis in AIA rats
# Method: (§4) For AIA, after a 7 day settling in period, animals received a subcutaneous injection of methylated bovine serum albumin (mBSA; 0.5 mg/ml; Sigma, Poole, UK) emulsified with an equal volume of Freund's complete adjuvant (CFA; 0.25 mg Mycobacterium tuberculosis: Sigma) into the right flank. A second subcutaneous injection of the emulsion was administered in the left flank 7 days later. Fourteen days following the second injection (day 0), an intra-articular injection of mBSA (0.5 mg in 50 μl saline) was administered into the right knee of 15 rats to serve as the AIA group. Another 15 rats received an intra-articular injection of 0.5 mg mBSA mixed with 2.5 mM NBQX (Tocris, Bristol, UK) in 50 μl saline, into the right knee. These rats served as the NBQX treatment group. […] Six control rats received no subcutaneous or intra-articular injections.
# Hindlimb walking patterns were evaluated by footprint analysis on days 0, 1, 2, 3, 4, 7, 9, 14 and 21 as previously described (4). […] Three sets of at least two stepping cycles per side (six sequential steps) were performed for each rat per experimental day. Three parameters were measured: limb rotation (angle between a line through the centre of the foot pad parallel to the walking direction and a line through the third digit), stride length (distance between feet of the same side) and stance width (distance between feet of the right and left stepping cycle).
# [13] = tested on: RA FLS; settings: cited from earlier work
# [14] = tested on: AIA rats; assay: KA1/AMPAR2 immunohistochemistry and TRAP staining in AIA rats; settings: day 21
# Method: as §4
# GluRs and transporters were localised in sequential paraffin knee sections (9 AIA, 9 NBQX and 6 control knees) using antibodies to kainate (anti-KA1, 1:400 dilution), AMPA receptor-2 (anti-ionotropic glutamate receptor-2, 1:100, both Abcam, Cambridge, UK), GLAST (GLAST11-S, 1:100) and EAAC1 (EAAC11-A, 1:200, both Alpha Diagnostic International, Texas, USA). AMPAR2 was also localised in 6 MNX and 6 naïve rats. Sections, processed as for histology, were deparaffinised and rehydrated prior to antigen retrieval using 1 mg/mitrypsin (Sigma) for 20 minutes at 37° C. Endogenous peroxidase activity was blocked with 0.3% hydrogen peroxide (Sigma) for 30 minutes followed by 3 washes in 1×TBS/0.1% tween for 15 minutes each. Sections were treated with 10% normal blocking serum (Sigma) for 1 hour prior to overnight incubation at 4° C. with primary antibody, followed by 3 washes in 1×TBS/0.1% tween. […] ABC horseradish peroxidase kit following the manufacturer's instructions (Vector Laboratories, Peterborough, UK). Sections were developed using nickel enhanced diaminobenzidine (DAB) (Vector Laboratories), counterstained in Mayer's haematoxylin (Fisher Scientific), rinsed in tap water, dehydrated, cleared in xylene and mounted. […]
# [15] = Body weight in ligament rupture mouse model; format: in vivo; settings: all mice; over 21 days
# Method: Using our non-invasive ligament rupture model, following trauma mice were given an intra-articular injection of 20 mM NBQX in the right knee. The left knee served as unloaded controls. Sterile water injections were performed in some mice to act as vehicle control. Knee swelling was measured using digital callipers on days 0, 1, 2, 3, 7, 16 and 21. […] Lameness scores were not severe enough to warrant extra doses of pain relief.
# [16] = tested on: AIA rats; assay: Macroscopic knee analysis (X-ray, MRI) in AIA rats; format: in vivo, rat; settings: day 21
# From the text: Prior to decalcification, whole rat knees were examined by radiography and MRI. Radiographs of both the inflamed and non-inflamed knees of 9 AIA, 9 NBQX and 3 control rats were obtained using a Kodak FX Pro in-vivo Imaging System (Advanced Molecular Vision, Grantham, UK), and the images analysed using Kodak Molecular Imaging software version 5 with the following parameters: 30 second exposure time at 35 kV, 4.96 F-stop, 71.4 mm FOV, 9.8 mm focal plane.
# Both the inflamed and non-inflamed knee joints of 6 AIA and 6 NBQX rats were imaged using a high spatial resolution MRI scanning protocol at the Experimental MRI Centre (EMRIC, School of Biosciences, Cardiff University). Each pair of knees was embedded in 1% agarose (Promega) inside a 50 ml falcon tube prior to scanning. MRI was performed using a Bruker Biospin Advance 9.4T ([…]) MRI system equipped with a transmit-receive quadrature coil. The scanning acquisition parameters were as follows: echo time […], repetition time 24 msec, field of view […]; matrix 640×280×280; and flip angle 180°. Images were subsequently viewed and analysed in ParaVision 5.1 (Bruker) and Analyze 10.0 software Mayo Biomedical Imaging Resource, Rochester, Minn., USA).
structure (smiles),measurement,setting,value
"NS(=O)(=O)c1cccc2c1c([N+](=O)[O-])cc1[nH]c(=O)c(=O)[nH]c12 [NBQX, 2,3-dihydroxy-6-nitro-7-sulfamoyl-benzo[f]quinoxaline-2,3-dione]","cathepsin K mRNA expression, inflamed knees vs AIA inflamed knees",[1],significant reduction
same,knee swelling vs vehicle controls,"[2]; day 7, P<0.05",significantly less knee swelling
same,knee swelling vs vehicle controls,"[2]; day 21, P<0.001",significantly less knee swelling
same,knee swelling compared to day 0 measurements,[2]; from day 2,no significant difference
same,knee swelling of vehicle control MNX rats compared to NBQX treated MNX rats,"[3]; day 8, 25 mM intra-articular, P<0.05",significantly greater knee swelling
same,knee swelling of vehicle control MNX rats compared to NBQX treated MNX rats,"[3]; day 14, 2.5 mM intra-articular, P<0.01",significantly greater knee swelling
same,knee swelling of vehicle control MNX rats compared to NBQX treated MNX rats,"[3]; day 14, 12.5 mM intra-articular, P<0.05",significantly greater knee swelling
same,weight,[4],consistently put on weight
same,IL-6 relative expression levels in meniscus vs AIA rats,"[5]; inflamed knee, P<0.05",significantly lower
same,IL-6 relative expression levels in meniscus vs AIA rats,[5]; left non-inflamed knee,not significant
same,mean knee swelling,"[6]; day 1, 2.5 mM intra-articular, right knee",2.95 mm
same,reduction in peak knee swelling,"[6]; day 1, vs AIA rats, 2.5 mM intra-articular",33%
same,knee swelling vs AIA rats,"[6]; every time point throughout 21 days, P<0.001",significant reduction
same,AMPA receptor antagonist,[7],Yes
same,MMP-2 expression by FLS,[8],did not affect
same,"synovial hyperplasia, exudate, infiltrate and articular surface degradation vs AIA rats",[9],significantly less severe
same,average joint degeneration severity score vs AIA rats,[9]; P<0.001,significantly reduced
same,bone changes score vs AIA,[9]; P<0.001,largest difference
same,synovial inflammation score vs AIA rats,[9]; P<0.001,significantly lower
same,joint degradation in the MFC vs AIA rats,[9]; P<0.01,significantly less joint degradation
same,proteoglycan loss score vs AIA,[9]; P<0.01,significantly lowered
same,tidemark integrity score vs AIA,[9]; P<0.01,significantly lowered
same,chondrocyte appearance score vs AIA,[9]; P<0.05,significantly lowered
same,joint degradation in the LFC vs AIA rats,[9]; P<0.05,significantly less joint degradation
same,difference in weight bearing left/right leg of vehicle control MNX rats compared to NBQX treated rats,"[10]; 2.5 mM, P<0.01",significantly greater difference in weight bearing
same,difference in weight bearing left/right leg of vehicle control MNX rats compared to NBQX treated rats,"[10]; 12.5 mM, P<0.05",significantly greater difference in weight bearing
same,difference in weight bearing left/right leg of vehicle control MNX rats compared to NBQX treated rats,"[10]; 25 mM, P<0.01",significantly greater difference in weight bearing
same,Kainate receptor antagonist,[11],Yes
same,stance width vs control rats,[12]; P<0.05,significantly greater
same,stride length vs control rats,[12]; P<0.05,significantly shorter
same,stride length,[12]; by day 14,returned to normal
same,stance width,[12]; by day 21,normal
same,weight bearing (footprints),[12]; days 1 and 2,able to weight bear
same,degree of foot rotation vs control rats,"[12]; right limb, P<0.05",significantly greater
same,inhibition of IL-6 release increased by high glutamate concentrations,[13],inhibited
same,GluR positive cells,[14],apparent reduction
same,TRAP positive osteoclasts vs AIA,[14],less abundant
same,extent of bone remodeling,[14],reduced
same,weight,[15],consistently put on weight
same,joint erosion in MRI,[16],greatly reduced
same,joint erosions in X-rays,[16],Fewer joint erosions
same,synovial inflammation in MRI,[16],greatly reduced

# From patent US9918986B2, “Methods and compounds for preventing osteoarthritis” (UNIVERSITY COLLEGE CARDIFF CONSULTANTS LIMITED, priority 2013, dated 2018)
